Assays:
pupil [1] = test: Pupil diameter after sequential intracameral injections in a sedated rabbit (Example 1); type: in vivo, New Zealand albino rabbit; settings: for Pupil Diameter: 5 min after injection
Method: One New Zealand albino rabbit (2-4Kg) was sedated with an intramuscular injection of a 1:1 mixture of ketamine (Vetalar, Parke-Davis and xylazine (Rompum, Haver-Lockhart). The pupil diameters of both eyes were measured under standard room lighting with an optistick and recorded. The right eye was injected intracamerally with 100ng of thromboxane B₂ (12ul). The contralateral eye was injected with an equal volume of the vehicle solution, 0.05% BSA (Bovine Serum Albumin) in 0.01N CH₃COOH. Hamilton syringes with 30 gauge needles were used for the injection. Five minutes later the pupil diameters of both eyes were measured and recorded. Sequential injections of thromboxane B₂ (Sigma) were made into the right eye and an equal volume of vehicle into the left. Five minutes after each injection the pupil diameters were measured and recorded. A total of three injections of thromboxane B₂ (TXB2) were administered to the right eye; 100ng, 1ug, 10ug (12ul). After the last injection of TXB2, carbachol, 200ng (lul) was administered to both eyes, intracamerally, and the pupil diameters were measured after five minutes.

pupil [2] = test: Pupil diameter after intracameral injection in flurbiprofen-pretreated sedated rabbits (Example 2); type: in vivo, New Zealand albino rabbits
Method: Seven New Zealand albino rabbits were treated, topically, with 0.03% flurbiprofen (Ocufen, Allergan) every 1/2 hour for two hours to inhibit endogenous synthesis of thromboxane. Following flurbiprofen treatment the rabbits were sedated with a 1:1 mixture of Ketamine and Rompum and the pupil diameters of both eyes were measured and recorded as before. 50ug (6ul) of TXB2 was injected intracamerally into the right eye of each rabbit and an equal volume of vehicle was administered to the left eyes. The pupil diameters were measured five minutes following the injections. This does of TXB2 was chosen because it is 1000 times the concentration of TXB2 found in clotting blood in rabbits (Ali and Mohammed, 1986). Carbachol 200ng (1ul) was injected into both eyes and the pupil diameters recorded after a five minute and a ten minute duration.
Refer to Figure 1. Next, both eyes were injected with 200ng (1ul) of carbachol.

pupil [3] = test: Pupil diameter after topical drops in awake monkeys (Example 4); type: in vivo, Cebus apella monkeys; settings: Cebus monkeys, total dose per eye 2.5 micrograms to 1 mg
Method: Eight Cebus apella monkeys were treated topically with thromboxane B₂ in one eye and normal saline in the contralateral eye. The monkeys were awake and alert and seated in primate chairs for the duration of the experiment. The thromboxane B₂ concentrations used were 0.625ug, 1.25ug, 6.25ug, 12.5ug, 62.5ug, 125.0ug and 250ug per drop. A 50ul drop was administered following the baseline pupil diameter measurement. Three more drops were given at 15 minute intervals. Total dose per eye after 4 drops ranged between 2.5 micrograms and 1 mg. Pupil diameter was measured just before each administration. The last measurement was taken at 60 minutes.
In the eight Cebus monkeys with TXB2-treated eyes, the pupil diameters decreased 0.75 to […] at 30 minutes.
The range of doses used probably represented the upper end of the dose-response curve. The 0.75 to […] pupil constriction represents a significant response in the small Cebus eye.

pupil [4] = test: Pupil diameter after intracameral injection in flurbiprofen-pretreated sedated cats (Example 3); type: in vivo, domestic cats; settings: cat
Method: Fifteen male and female domestic cats were treated topically with 0.03% flurbiprofen (in both eyes) every 1/2 hours for two hours to inhibit endogenous thromboxane synthesis. The cats were sedated with 0.5 to 0.75ml of Rompum (20mg/ml) by intramuscular injection. […] The pupil diameters of both eyes were measured with an optistick and recorded. The right eye of each cat was injected intracamerally with one concentration of thromboxane B₂ ranging from a high of 500ng (10ul) to a low of 10ng (10ul). The contralateral eye was injected with an equal volume of the vehicle: saline. The pupil diameters were measured five and ten minutes after the injections. The cats were allowed to regain consciousness while in the laboratory.
Increasing concentrations of TXB2 led to greater constriction of the pupil (miosis). Maximum constriction of the pupil occurred at a dose of 500ng. The ED₅₀ was 70ng. Refer to Figure 2. […] The filled circles are the mean pupil diameters of the TXB2 treated eyes. The pupil diameters of the vehicle treated eyes are shown by the open circles.

SMILES | pupil constriction (pupil [1]; rabbit #8394, carbachol 200ng (1ul) intracameral, both eyes) | Pupil Diameter (pupil [1]; rabbit #8394, eye OD (previously TXB2 treated), carbachol 200ng intracameral) [mm] | Pupil Diameter (pupil [1]; rabbit #8394, eye OS (previously vehicle treated), carbachol 200ng intracameral) [mm] | Pupil Diameter (pupil [2]; carbachol 200ng (1ul) injected into both eyes after TXB2 or vehicle, measured after 5 and 10 min) | dose-response relationship of pupil constriction (pupil [3]) | Pupil Diameter (pupil [1]; rabbit #8394, eye OD, TXB2 100ng intracameral (12ul), baseline 6.0) [mm] | Pupil Diameter (pupil [1]; rabbit #8394, eye OD, second sequential TXB2 dose 1ug intracameral) [mm] | Pupil Diameter (pupil [1]; rabbit #8394, eye OD, third sequential TXB2 dose 10ug intracameral) [mm] | changes in pupil diameter (pupil [1]; rabbit #8394, three sequential intracameral doses 100ng, 1ug and 10ug) | ability of the pupillary sphincter to contract when stimulated by carbachol (pupil [2]; rabbits, topical 0.03% flurbiprofen pretreatment, TXB2 50ug intracameral, then carbachol 200ng) | pupil diameters versus vehicle eyes (pupil [2]; seven rabbits, 0.03% flurbiprofen pretreatment, 50ug (6ul) intracameral, 5 min after injection) | dose at which maximum constriction of the pupil occurred (pupil [4]; intracameral, doses 10ng to 500ng (10ul)) [ng] | effect on pupil diameter (pupil [4]; intracameral, doses 10ng to 500ng, measured 5 and 10 min after injection) | ED₅₀ (pupil [4]; pupil constriction (miosis), intracameral doses 10ng to 500ng (10ul), flurbiprofen pretreatment) [ng]
C[N+](C)(C)CCOC(N)=O [Carbachol, carbachol, reference compound] | constricted an expected amount | 3 | 1.5 | decreased significantly and to the same degree in both eyes | – | – | – | – | – | – | – | – | – | –
CCCCC[C@H](O)/C=C/[C@H]1OC(O)C[C@H](O)[C@@H]1C/C=C\CCCC(=O)O (some centres unmarked) [TXB2, thromboxane B₂] | – | – | – | – | no dose-response relationship was observed | 5 | 5 | 5.5 | no significant changes in pupil diameter | nor TXB2 administration affected the ability of the pupillary sphincter to contract | no different from those eyes receiving vehicle | 500 | dose-related effect on pupil diameter | 70
